Test results taken from paper PMC10522709, “Rational design and characterization of cell-selective antimicrobial peptides based on a bioactive peptide from Crocodylus siamensis hemoglobin” (Scientific Reports, 2023).
Where two headings read alike, the source gives them in different places. Ends that are not written are not given here.

Experiments:
Format in all cases: cell-based
[1] = system: human peripheral blood mononuclear cells (PBMC); conditions: 24 h
Method: (§1) Human peripheral blood mononuclear cells (PBMC), African green monkey kidney cells (Vero), human keratinocyte cells (HaCaT) and mouse preadipocytes (3T3-L1) were used to evaluate the cytotoxicity of peptides by the MTT assay. PBMCs were isolated using Ficoll medium (GE Healthcare, Uppsala, Sweden) as described by Jangpromma et al.[28]. The PBMCs were then cultured in RPMI 1640, while Vero, HaCaT and 3T3-L1 cells were cultured in DMEM. All culture mediums were supplemented with 10% heat-inactivated fetal bovine serum (FBS) and 1% antibiotic:antimycotic (Gibco, USA). The cells were cultured at 37 °C with 5% CO2/95% relative humidity. After that, PBMC (2 × 10^6 cells/well), Vero (1 × 10^4 cells/well), HaCaT (1 × 10^4 cells/well) and 3T3-L1 (1 × 10^4 cells/well) were individually seeded into 96-well plate and cultured at 37 °C overnight. Next, two-fold serially diluted peptides (3.13–200 μg/mL) were added to the cell culture. After incubation in 5% (v/v) CO2 incubator for 24 h, the medium culture was removed and MTT solution ([…] final concentration in fresh medium culture) was added to the cells and incubated for 30 min. Thereafter, the medium was removed and DMSO (100 µL) was added to each well to dissolve the formazan crystals. The optical density at 570 nm was determined using a microplate reader (ALLSHENG, Zhejiang, China). The cytotoxicity of IL15.3 against Vero, HaCaT and 3T3-L1 cells in the absence of FBS was also measured by the MTT assay to confirm the peptide is not sequestered by proteins in the serum causing artificially low cytotoxicity against eukaryotic cells.
(§2) Cell viability was determined using the equation: %cellviability=OD570ofsample/OD570ofuntreatedcontrol×100
(§3) GraphPad Prism8 (San Diego, CA, USA) was used to calculate IC50 values using a non-linear regression model.

[2] = system: human keratinocyte cells (HaCaT); conditions: 24 h
Method: as §1, §2, §3

[3] = system: Bacillus subtilis (ATCC 6633); conditions: ATCC 6633, 18 h
Method: (§4) Broth microdilution assays were performed as reported previously. In short, the bacteria including Escherichia coli (ATCC 25922), Klebsiella pneumoniae (ATCC 27736), Pseudomonas aeruginosa (ATCC 27853), Bacillus subtilis (ATCC 6633), Staphylococcus aureus (ATCC 25923) and Staphylococcus epidermidis (ATCC 12228) were grown in Nutrient broth to mid-log phase at 37 °C. The bacterial suspension (50 μL, concentration of 1 × 10^6 CFU/mL) was loaded into a well with serially diluted peptide (50 µL, final concentrations ranging from 0–200 μg/mL) in a sterile 96-well plate and incubated at 37 °C for 18 h. The optical density (OD) at 600 nm was measured using a microplate reader (ALLSHENG, Zhejiang, China) in order to determine the growth of the bacteria. The inhibition was estimated using the formula; %inhibition=OD600ofcontrol-OD600ofsample/OD600ofcontrol-OD600ofblank×100 where minimal inhibitory concentration (MIC) is defined as the minimum concentration that inhibited 90% of bacterial growth.

[4] = system: Klebsiella pneumoniae (ATCC 27736); conditions: ATCC 27736, 18 h
Method: as §4

[5] = system: Escherichia coli (ATCC 25922); conditions: ATCC 25922, 18 h
Method: as §4

[6] = system: several bacterial strains; conditions: for MIC, over all strains tested: 18 h
Method: as §4

[7] = system: Pseudomonas aeruginosa (ATCC 27853); conditions: ATCC 27853, 18 h
Method: as §4

[8] = system: Staphylococcus epidermidis (ATCC 12228); conditions: ATCC 12228, 18 h
Method: as §4

[9] = system: Staphylococcus aureus (ATCC 25923); conditions: ATCC 25923, 18 h
Method: as §4

[10] = system: human erythrocytes; conditions: red cells of human, 1 h
Method: Human whole blood was obtained from Blood Transfusion Center Faculty of Medicine Khon Kaen University (ethical approval number HE601010). Fresh human erythrocytes were carefully mixed with PBS (1:3) and centrifuged at 1000 × g for 2 min. The supernatant was discarded and the cell pellet was resuspended to 2% w/v in PBS. 100 µL of the resuspended erythrocytes were incubated with the peptide (10 µL, final concentrations ranging from 12.5 to 100 μg/mL, two-fold serial dilution) at 37 °C for 1 h. After the treatment, the plate was centrifuged and the supernatant was taken to determine the optical density at 415 nm using a microplate reader (ALLSHENG, Zhejiang, China). The positive control for this assay was the addition of Triton X-100 (1% v/v), which causes 100% hemolysis. The negative control was cells treated with PBS buffer only. The hemolysis activity was estimated using the equation: %hemolysis=OD415ofsample/OD415ofTritonX-100treatedcontrol×100

[11] = system: Bacillus subtilis (ATCC 6633); conditions: ATCC 6633, 24 h
Method: as §4
(§5) In order to evaluate the minimal bactericidal concentration (MBC)—the lowest concentration that terminates the growth of bacteria on an agar plate—of the peptide, co-culture medium (100 μL) from each well after the microdilution assay was spread on a nutrient agar plate. Plates were maintained at 37 °C for 24 h and the number of colonies formed was counted to evaluate antimicrobial activity.

[12] = system: Klebsiella pneumoniae (ATCC 27736); conditions: ATCC 27736, 24 h
Method: as §4, §5

[13] = system: Escherichia coli (ATCC 25922); conditions: ATCC 25922, 24 h
Method: as §4, §5

[14] = system: Pseudomonas aeruginosa (ATCC 27853); conditions: ATCC 27853, 24 h
Method: as §4, §5

[15] = system: Staphylococcus epidermidis (ATCC 12228); conditions: ATCC 12228, 24 h
Method: as §4, §5

[16] = system: Staphylococcus aureus (ATCC 25923); conditions: ATCC 25923, 24 h
Method: as §4, §5

For IIHNEKVQAHGKKVL [IL15], the “IC50 PBMC” value [1] was greater than 200 µg/mL, the “IC50 HaCaT” value [2] was greater than 200 µg/mL and the MIC [3] was greater than 200 µg/mL. The MIC [4] was greater than 200 µg/mL, the MIC [5] was greater than 200 µg/mL and the “MIC, over all strains tested” value [6] was greater than 200 µg/mL. It also gave an MIC [7] greater than 200 µg/mL, an MIC [8] greater than 200 µg/mL and an MIC [9] greater than 200 µg/mL. For the same sequence, the “Hemolysis concentration50 (HC50)” value [10] was greater than 2000 µg/mL, the MBC [11] was greater than 200 µg/mL and the MBC [12] was greater than 200 µg/mL. It also gave an MBC [13] greater than 200 µg/mL, an MBC [14] greater than 200 µg/mL and an MBC [15] greater than 200 µg/mL. For the same sequence, the MBC [16] was greater than 200 µg/mL.

IKHWEKVWKHGKKVL [IL15.1] was tested, and the “IC50 PBMC” value [1] was greater than 200 µg/mL, the “IC50 HaCaT” value [2] was greater than 200 µg/mL and the MIC [3] was greater than 200 µg/mL. For the same sequence, the MIC [4] was greater than 200 µg/mL, the MIC [5] was greater than 200 µg/mL and the “MIC, over all strains tested” value [6] was greater than 200 µg/mL. It also gave an MIC [7] greater than 200 µg/mL, an MIC [8] greater than 200 µg/mL and an MIC [9] greater than 200 µg/mL. The “Hemolysis concentration50 (HC50)” value [10] was greater than 2000 µg/mL, the MBC [11] was greater than 200 µg/mL and the MBC [12] was greater than 200 µg/mL. For the same sequence, the MBC [13] was greater than 200 µg/mL, the MBC [14] was greater than 200 µg/mL and the MBC [15] was greater than 200 µg/mL. For the same sequence, the MBC [16] was greater than 200 µg/mL.

In the case of IKHWKKVWKHGKKVL [IL15.2], the “IC50 PBMC” value [1] is reported as greater than 200 µg/mL, the “IC50 HaCaT” value [2] is reported as greater than 200 µg/mL and the MIC [3] is reported as 50 µg/mL. The MIC [4] was greater than 200 µg/mL, the MIC [5] was 100 µg/mL and the MIC [7] was greater than 200 µg/mL. For the same sequence, the MIC [8] was greater than 200 µg/mL, the MIC [9] was greater than 200 µg/mL and the “Hemolysis concentration50 (HC50)” value [10] was greater than 2000 µg/mL. The MBC [11] was 60 µg/mL, the MBC [12] was greater than 200 µg/mL and the MBC [13] was 150 µg/mL. The MBC [14] was greater than 200 µg/mL, the MBC [15] was greater than 200 µg/mL and the MBC [16] was greater than 200 µg/mL.

IKHWKKVWKHWKKKL [IL15.4] was tested, and the “IC50 PBMC” value [1] was greater than 200 µg/mL, the “IC50 HaCaT” value [2] was greater than 200 µg/mL and the MIC [3] was 6 µg/mL. For the same sequence, the MIC [4] was 14 µg/mL, the MIC [5] was 4 µg/mL and the “increase of SI in comparison with IL15.2” value ([6]; towards gram-negative bacteria) was “approximately 6 fold”. For the same sequence, the “increase of SI in comparison with IL15.2” value ([6]; towards gram-positive bacteria) was roughly 25 fold, the MIC [7] was 10 µg/mL and the MIC [8] was 9 µg/mL. For the same sequence, the MIC [9] was 12 µg/mL, the “Hemolysis concentration50 (HC50)” value [10] was greater than 2000 µg/mL and the MBC [11] was 10 µg/mL. The MBC [12] was 50 µg/mL, the MBC [13] was 6 µg/mL and the MBC [14] was 14 µg/mL. It also gave an MBC [15] of 12 µg/mL and an MBC [16] of 25 µg/mL.

For IRHWRRVWRHWRRRL [IL15.5], the “IC50 PBMC” value [1] was 113 µg/mL, the “IC50 HaCaT” value [2] was 200 µg/mL and the MIC [3] was 8 µg/mL. The MIC [4] was 75 µg/mL, the MIC [5] was 15 µg/mL and the “MIC, over all strains tested” value [6] was 8 to 75 µg/mL. It also gave an MIC [7] of 35 µg/mL, an MIC [8] of 12 µg/mL and an MIC [9] of 25 µg/mL. For the same sequence, the “Hemolysis concentration50 (HC50)” value [10] was 896 µg/mL, the MBC [11] was 12 µg/mL and the MBC [12] was 100 µg/mL. The MBC [13] was 25 µg/mL, the MBC [14] was 50 µg/mL and the MBC [15] was 15 µg/mL. It also gave an MBC [16] of 50 µg/mL.

With QAIIHNEKVQAHGKKVL [QL17] the “IC50 PBMC” value [1] was greater than 200 µg/mL, the “IC50 HaCaT” value [2] was greater than 200 µg/mL and the MIC [3] was greater than 200 µg/mL. The MIC [4] was greater than 200 µg/mL, the MIC [5] was greater than 200 µg/mL and the “MIC, over all strains tested” value [6] was greater than 200 µg/mL. The MIC [7] was greater than 200 µg/mL, the MIC [8] was greater than 200 µg/mL and the MIC [9] was greater than 200 µg/mL. The “Hemolysis concentration50 (HC50)” value [10] was greater than 2000 µg/mL, the MBC [11] was greater than 200 µg/mL and the MBC [12] was greater than 200 µg/mL. It also gave an MBC [13] greater than 200 µg/mL, an MBC [14] greater than 200 µg/mL and an MBC [15] greater than 200 µg/mL. The MBC [16] was greater than 200 µg/mL.
